Reference: patent publication US8999957B2, “Heterocyclic compounds as ERK inhibitors” (Merck Sharp & Dohme Corp., priority 2010, dated 2015)
Several values for one entry are separate records, joined by “and”; a condition that tells them apart may be missing. Equal values may be shown once. Read-outs that look alike come from different tables or passages of the source.

Key:
ERK protein = ERK protein (Mus musculus, UniProt P63085); assay: TdF (Temperature Dependence Fluorescence, thermal shift) assay for ERK; type: binding; conditions: 3 μM ERK protein, uncertainty estimated ±50%, read-out: Kd TdF
Description: Assays: TdF Assay for ERK […] The TdF assay was mainly conducted in the 96-well based CHROMO-4 real time fluorescence plate reader (BioRad). The Sypro Orange (Sigma-Aldrich), environmentally sensitive fluorescence dye, was used to monitor the protein folding-unfolding transition. Protein-ligand binding was gauged by the change (or shift) in the unfolding transition temperature (ΔTm) acquired at protein alone with respect to protein in the presence of ligand of interest. Compound of interest was first prepared in DMSO stock (typical concentration: 10 mM). […] Final percentage of DMSO resided in the sample was 2%. The sample plate was heated from 30° C. to 90° C. with thermal ramping rate of 1° C./min. […] The instrument thermal stability was ±0.2° C. The melting temperatures (Tm) for ERK protein under aforementioned conditions occurred at 61.0±0.2° C. and 64.8±02° C. respectively. Theoretical Basis for TdF-Based Ligand Binding Affinity Constant […] In brief, the binding constant of the ligand at the Tm is expressed as below: [formula] where T0 is the midpoint of unfolding for unliganded protein and Tm is the midpoint of unfolding in presence of ligand. [LTm] is free ligand at Tm. The ΔHu and ΔCpu are the enthalpy of unfolding and heat capacity change of unfolding for the protein respectively. Following algorithm derived by Winsor and coworker, the T0, ΔHu and ΔCpu can be determined separately from nonlinear regression fitting the protein alone melting curve: Where F(T) is the observed fluorescence intensity at any temperature T, Yn and Yu are the predicted fluorescence intensities for fully folded and unfolded protein, respectively; mn and mu are slope correction for changes in Yn and Yu with respect to changes in temperature (analogously replace T0 with Tm in the above equation for liganded protein to yield Tm). […] [formula] where ΔHL (T) is the van't Hoff enthalpy of ligand binding at temperature T and ΔCpL is the heat capacity upon ligand binding. For simplicity, the ΔCpL and ΔHL (T) were set to zero and −7 kcal/mol respectively.

[1] = molecular target: fully phosphorylated, active Mouse ERK2 protein (Mus musculus (Mouse), UniProt P63085); assay: Active ERK2 (aERK) IMAP assay, condition 1; type: biochemical; conditions: aERK assay condition 1, 30 μM ATP
Experimental: Active ERK2 (aERK) Assay: (Unless Indicated Otherwise, the Data Provided for aERK was obtained using Condition 1)
Activated ERK2 activity was also determined in the IMAP assay format using the procedure outlined above. […] Reactions proceeded for 30 minutes before termination by addition of 60 μl IMAP detection beads in binding buffer. Plates were read as above after 30 minute binding equilibration.

[2] = molecular target: fully phosphorylated, mouse aERK2 enzyme (Mus musculus (Mouse), UniProt P63085); assay: Active ERK2 (aERK) IMAP-FP assay, condition 2; type: biochemical
How it was run: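 Phosphorylation by fully phosphorylated mouse ERK2 ran 40-45 min, then quenched with IMAP beads (1:1000) in binding buffer; fluorescence polarization read after 30 min binding equilibration.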

[3] = active ERK2, read-out: aErk2 Ic50

Sequence of ERK protein (P63085 2-358 limits assumed): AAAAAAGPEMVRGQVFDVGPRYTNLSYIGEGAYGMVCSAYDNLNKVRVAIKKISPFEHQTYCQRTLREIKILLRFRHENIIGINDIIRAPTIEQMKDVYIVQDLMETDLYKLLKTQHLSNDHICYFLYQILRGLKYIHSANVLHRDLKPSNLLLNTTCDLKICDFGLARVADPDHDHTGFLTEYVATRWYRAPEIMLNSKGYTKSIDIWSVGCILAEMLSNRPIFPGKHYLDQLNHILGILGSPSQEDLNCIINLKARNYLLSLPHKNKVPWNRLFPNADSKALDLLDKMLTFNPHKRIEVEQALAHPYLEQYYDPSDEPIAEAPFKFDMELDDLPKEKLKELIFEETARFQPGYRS
Sequence of fully phosphorylated, active Mouse ERK2 protein (P63085 whole entry): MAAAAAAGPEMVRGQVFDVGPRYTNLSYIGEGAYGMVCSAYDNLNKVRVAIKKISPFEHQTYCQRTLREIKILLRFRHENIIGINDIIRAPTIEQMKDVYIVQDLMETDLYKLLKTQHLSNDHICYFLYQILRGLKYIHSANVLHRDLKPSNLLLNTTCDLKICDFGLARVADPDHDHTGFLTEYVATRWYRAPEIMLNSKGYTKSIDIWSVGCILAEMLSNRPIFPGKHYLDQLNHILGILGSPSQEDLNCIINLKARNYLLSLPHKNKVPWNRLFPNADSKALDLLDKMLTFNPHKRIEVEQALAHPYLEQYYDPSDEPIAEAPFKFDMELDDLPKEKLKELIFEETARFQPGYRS
Sequence of fully phosphorylated, mouse aERK2 enzyme (P63085 whole entry): as above

Row | Molecule | Kd (ERK protein) [nM] | IC50 [1] [nM] | IC50 [2, 3] | IC50 ([2]; aERK assay condition 2, 30 uM ATP, read-out: aERK IC50) [nM]
1 | O=C(NC1CNCCC1c1cccc(F)c1)c1ccc2[nH]nc(-c3ccncc3)c2c1 (centres unmarked) | 106 | – | – | –
2 | O=C(NC1CCCCNC1=O)c1ccc2[nH]nc(-c3ccncc3)c2c1 (centres unmarked) | 73 | – | – | –
3 | O=C(N[C@@H]1CCCN(Cc2ccccn2)C1)c1ccc2[nH]nc(-c3ccc4c(c3)CCO4)c2c1 | 9.2 | 591 | – | –
4 | N#Cc1ccc(CN2CCC[C@@H](NC(=O)c3ccc4[nH]nc(-c5ccc6c(c5)CCO6)c4c3)C2)cc1 | 82 | 1000 | – | –
5 | O=C(N[C@@H]1CCCN(Cc2nccs2)C1)c1ccc2[nH]nc(-c3ccc4c(c3)CCO4)c2c1 | 10.5 | 251 | – | –
6 | CN(C)c1ccc(CN2CCC[C@@H](NC(=O)c3ccc4[nH]nc(-c5ccc6c(c5)CCO6)c4c3)C2)cc1 | 1000 | 1000 | – | –
7 | CCc1cc(-c2n[nH]c3ccc(C(=O)N[C@@H]4CCCN(Cc5ccccc5F)C4)cc23)ccn1 | 0.4 | 19.8 | – | –
8 | COc1cccc(F)c1CN1C[C@H](C)C[C@@H](NC(=O)c2ccc3[nH]nc(-c4ccc5nn(C)cc5c4)c3c2)C1 | 0.39 | 217 | – | –
9 | COc1cccc(F)c1CN1CCC[C@@H](NC(=O)c2ccc3[nH]nc(-c4ccc5nc(C)sc5c4)c3c2)C1 | 0.1 | 78.5 | – | –
10 | COc1cccc(F)c1CN1C[C@@H](NC(=O)c2ccc3[nH]nc(-c4ccnc(C)c4)c3c2)CCC1=O | 4.12 | 992 | – | –
11 | Cc1cc(-c2n[nH]c3ccc(C(=O)N[C@@H]4CCCN(Cc5scnc5C)C4)cc23)ccn1 | 20.3 | 875 | – | –
12 | CCCN(C)C(=O)[C@@H]1CC[C@@H](NC(=O)c2ccc3[nH]nc(-c4ccnc(C)c4)c3c2)CN1Cc1c(F)cccc1OC [N-{(3R,6S)-1-(2-fluoro-6-methoxybenzyl)-6-[methyl(propyl)carbamoyl]piperidin-3-yl}-3-(2-methylpyridin-4-yl)-1H-indazole-5-carboxamide] | – | – | 57 nM | –
13 | CN1CC(NC(=O)c2ccc3[nH]nc(-c4ccncc4)c3c2)CC(c2ccccc2)C1 (centres unmarked) [drawing 219] | 1.4 | – | – | –
14 | CCOC(=O)N1CCN(C(=O)[C@@H]2CC[C@@H](NC(=O)c3ccc4[nH]nc(-c5ccnc(C)c5)c4c3)CN2Cc2c(F)cccc2OC)CC1 [ethyl 4-{[(2S,5R)-1-(2-fluoro-6-methoxy-benzyl)-5-({[3-(2-methylpyridin-4-yl)-1H-indazol-5-yl]carbonyl}amino)piperidin-2-yl]carbonyl}piperazine-1-carboxylate] | – | – | 20.5 nM | –
15 | COC(=O)N1CCN(C(=O)[C@@H]2CC[C@@H](NC(=O)c3ccc4[nH]nc(-c5ccnc(C)c5)c4c3)CN2Cc2c(F)cccc2OC)CC1 [methyl 4-{[(2S,5R)-1-(2-fluoro-6-methoxy-benzyl)-5-({[3-(2-methylpyridin-4-yl)-1H-indazol-5-yl]carbonyl}amino)piperidin-2-yl]carbonyl}piperazine-1-carboxylate] | – | – | 17.9 nM | –
16 | COc1cccc(F)c1CN1C[C@H](NC(=O)c2ccc3[nH]nc(-c4ccnc(C)c4)c3c2)CC[C@H]1C(=O)NCCNC(=O)OC(C)(C)C [tert-butyl [2-({[(2S,5R)-1-(2-fluoro-6-methoxybenzyl)-5-({[3-(2-methylpyridin-4-yl)-1H-indazol-5-yl]carbonyl}amino)piperidin-2-yl]carbonyl}amino)ethyl]carbamate] | – | – | 18.9 nM | –
17 | COc1cccc(F)c1CN1C[C@H](NC(=O)c2ccc3[nH]nc(-c4ccnc(C)c4)c3c2)CC[C@H]1C(=O)NCCCNC(=O)OC(C)(C)C [tert-butyl [3-({[(2S,5R)-1-(2-fluoro-6-methoxybenzyl)-5-({[3-(2-methylpyridin-4-yl)-1H-indazol-5-yl]carbonyl}amino)piperidin-2-yl]carbonyl}amino)propyl]carbamate] | – | – | 16.9 nM | –

Continued, values first:

Row | Kd (ERK protein) [nM] | IC50 [1] [nM] | IC50 [2, 3] | IC50 ([2]; aERK assay condition 2, 30 uM ATP, read-out: aERK IC50) [nM] | Molecule
18 | 290 | – | – | – | O=C(NC1CN(C(=O)OCc2ccccc2)CCNC1=O)c1ccc2[nH]nc(-c3ccncc3)c2c1 (centres unmarked)
19 | 8 | – | – | – | O=C(Nc1ccc2[nH]nc(-c3ccncc3)c2c1)C1CNCC(c2ccccc2)C1 (centres unmarked)
20 | 0.8 | – | – | – | O=C(NC1CNCC(c2ccccc2)C1)c1ccc2[nH]nc(-c3ccncc3)c2c1 (centres unmarked)
21 | 76 | 626 | – | – | O=C(N[C@@H]1CCCN(Cc2ccncc2)C1)c1ccc2[nH]nc(-c3ccc4c(c3)CCO4)c2c1
22 | 0.42 | 39.1 | – | – | COc1cccc(F)c1CN1CC(NC(=O)c2ccc3[nH]nc(-c4ccnc(C)c4)c3c2)CC(OC)C1 (centres unmarked)
23 | 17.7 | 663 | – | – | COc1cccc(F)c1CN1C[C@@H](NC(=O)c2ccc3[nH]nc(-c4ccc5nccn5c4)c3c2)CCC1=O
24 | 0.35 | 13.3 | – | – | [2H]C(c1c(F)cccc1OC)N1CCC[C@@H](NC(=O)c2ccc3[nH]nc(-c4ccnc(C)c4)c3c2)C1 (some centres unmarked)
25 | 3.79 | 146 | – | – | COC(=O)C1CC(NC(=O)c2ccc3[nH]nc(-c4ccnc(C)c4)c3c2)CN(Cc2c(F)cccc2OC)C1 (centres unmarked)
26 | 1.89 | 234 | – | – | Cc1cc(-c2n[nH]c3ccc(C(=O)N[C@@H]4CCCN(Cc5ncccc5F)C4)cc23)ccn1
27 | 0.97 | 137 | – | – | COc1ccsc1CN1CCC[C@@H](NC(=O)c2ccc3[nH]nc(-c4ccnc(C)c4)c3c2)C1
28 | 0.34 | 62.5 | – | – | [2H]C1(N2CCC[C@@H](NC(=O)c3ccc4[nH]nc(-c5ccnc(C)c5)c4c3)C2)CCc2ccccc21 (some centres unmarked)
29 | – | – | 32.5 nM | – | COc1cccc(F)c1CN1C[C@H](NC(=O)c2ccc3[nH]nc(-c4ccnc(C)c4)c3c2)CC[C@H]1C(=O)N1CCN(C)CC1 [N-{(3R,6S)-1-(2-fluoro-6-methoxybenzyl)-6-[(4-methylpiperazin-1-yl)carbonyl]piperidin-3-yl}-3-(2-methylpyridin-4-yl)-1H-indazole-5-carboxamide]
30 | – | – | – | 6.7 | COc1cccc(F)c1CN1C[C@H](NC(=O)c2ccc3[nH]nc(-c4ccnc(C)c4)c3c2)CC[C@H]1C(=O)Nc1ccc(C)nc1 [N-{(3R,6S)-1-(2-fluoro-6-methoxybenzyl)-6-[(6-methylpyridin-3-yl)carbamoyl]piperidin-3-yl}-3-(2-methylpyridin-4-yl)-1H-indazole-5-carboxamide]
31 | – | – | 11.2 nM | – | COc1cccc(F)c1CN1C[C@H](NC(=O)c2ccc3[nH]nc(-c4ccnc(C)c4)c3c2)CC[C@H]1C(=O)N(C)OC [N-{(3R,6S)-1-(2-fluoro-6-methoxybenzyl)-6-[methoxy(methyl)carbamoyl]piperidin-3-yl}-3-(2-methylpyridin-4-yl)-1H-indazole-5-carboxamide]
32 | – | – | 31 nM | – | COc1cccc(F)c1CN1C[C@H](NC(=O)c2ccc3[nH]nc(-c4ccnc(C)c4)c3c2)CC[C@H]1C(=O)N1CCN(C(=O)OC2CCCC2)CC1 [cyclopentyl 4-{[(2S,5R)-1-(2-fluoro-6-methoxybenzyl)-5-({[3-(2-methylpyridin-4-yl)-1H-indazol-5-yl]carbonyl}amino)piperidin-2-yl]carbonyl}piperazine-1-carboxylate]
33 | – | – | 7 nM | – | COc1cccc(F)c1CN1C[C@H](NC(=O)c2ccc3[nH]nc(-c4ccnc(C)c4)c3c2)CC[C@H]1C(=O)N1CCN(C(=O)OC(C)(C)C)CC1 [tert-butyl 4-{[(2S,5R)-1-(2-fluoro-6-methoxy-benzyl)-5-({[3-(2-methylpyridin-4-yl)-1H-indazol-5-yl]carbonyl}amino)piperidin-2-yl]carbonyl}piperazine-1-carboxylate]
34 | – | – | 90.3 nM | – | COc1cccc(F)c1CN1C[C@H](NC(=O)c2ccc3[nH]nc(-c4ccnc(C)c4)c3c2)CC[C@H]1C(=O)N(C)CCCCNC(=O)OC(C)(C)C [tert-butyl {4-[{[(2S,5R)-1-(2-fluoro-6-methoxybenzyl)-5-({[3-(2-methylpyridin-4-yl)-1H-indazol-5-yl]carbonyl}amino)piperidin-2-yl]carbonyl}(methyl)amino]butyl}carbamate]
35 | – | – | 18.8 nM | – | COc1cccc(F)c1CN1C[C@H](NC(=O)c2ccc3[nH]nc(-c4ccnc(C)c4)c3c2)CC[C@H]1C(=O)N1CCN(C(=O)OC2CCOCC2)CC1 [tetrahydro-2H-pyran-4-yl 4-{[(2S,5R)-1-(2-fluoro-6-methoxybenzyl)-5-({[3-(2-methylpyridin-4-yl)-1H-indazol-5-yl]carbonyl}amino)piperidin-2-yl]carbonyl}piperazine-1-carboxylate]
36 | – | – | 20.2 nM and 30 nM | – | N-{(3R,6S)-1-(2-fluoro-6-methoxybenzyl)-6- [(2-methylhydrazino)carbonyl]piperidin-3- yl}-3-(2-methylpyridin-4-yl)-1H-indazole-5- carboxamide
